Values joined by “and” are separate entries in the source; they are usually repeats but may differ in a detail not shown here. Equal entries are not always repeated. ± gives the expanded uncertainty stated by the source.
Assays:
[1] = for mass density: 101.33 kPa, X-ray diffraction; for Normal melting temperature: DTA
[2] = Molar enthalpy of transition or fusion; conditions: DSC
[3] = molar heat capacity at constant pressure; conditions: 101.33 kPa, Crystal 2, DSC
[4] = molar enthalpy of vaporization or sublimation; conditions: Static calorimetry

[C-]#[O+].[C-]#[O+].[C-]#[O+].[C-]#[O+].[C-]#[O+].[C-]#[O+].[C-]#[O+].[C-]#[O+].[C-]#[O+].[C-]#[O+].[Re].[Re] [decacarbonyldirhenium]
Conditions | mass density [kg/m3] | molar enthalpy [kcal/mol]
[1], 293 K, Crystal | 2932 ± 41 | –
[4], 332.8 K, Crystal 2 | – | 23 ± 0.234

Conditions | Molar enthalpy of transition or fusion [kcal/mol] | Normal melting temperature [°C] | Triple point temperature [K] | molar heat capacity at constant pressure [J/K/mol]
[1], Crystal 1 | – | 182.01 ± 1.7 | – | –
[1], Crystal 2, DSC | – | – | 366.75 ± 0.92 | –
[2], Crystal 1 | 1 ± 0.263 | – | – | –
[2], Crystal 2 | 3.66 ± 0.0908 | – | – | –
[3], 298.15 K | – | – | – | 391.8 ± 53
[3], 303.15 K | – | – | – | 396.5 ± 50
[3], 308.15 K | – | – | – | 401.1 ± 47
[3], 313.15 K | – | – | – | 405.5 ± 44
[3], 318.15 K | – | – | – | 409.8 ± 41
[3], 323.15 K | – | – | – | 413.9 ± 39
[3], 328.15 K | – | – | – | 417.9 ± 36
[3], 333.15 K | – | – | – | 421.8 ± 34
[3], 338.15 K | – | – | – | 425.5 ± 32

[CH3][Re](=[O])(=[O])=[O] [methyltrioxorhenium]
Crystal
Conditions | mass density, 167 K [kg/m3] | mass density, 214 K [kg/m3] | mass density, 296 K | molar enthalpy, 298 K [kcal/mol]
[1] | 4254 ± 7 | 4199 ± 6 | 4124 ± 80 kg/m3 and 4132 ± 19 kg/m3 | –
[4] | – | – | – | 16.79 ± 0.124

Crystal
Conditions | Molar enthalpy of transition or fusion [kcal/mol] | Normal melting temperature [°C]
[1] | – | 112.59 ± 0.39
[2] | 4.72 ± 0.129 | –

Reference: the NIST ThermoML archive (doi:10.1016/j.jct.2019.01.016)
